# Measured values as given in patent US8377900B2 (National Research Council of Canada, priority 2003, dated 2013).
# Assays:
# 293A cells = format: cell-based, Human; details: 25 μM, cell growth rate and CMV-GFP expression
# Experimental: At a concentration of 5 μM novobiocin, however, over 98% of the coumermycin-induced luciferase expression was suppressed (FIG. 5A).
# [1] = cited from earlier work
# [2] = system: S92G-mutated chimeric λR-GyrB transactivator; format: cell-based, Human
# Text: FIG. 5A. […] Results represent two independent experiments performed in triplicate.
# Results shown are the means for triplicate determinations and representative of 3 experiments.
# K562-Bax 65 cells = test: Western blot of Bax expression and cytosolic cytochrome C in clone K562-Bax 65; format: cell-based, Human; details: 5 nM coumermycin, 36 hr
# Text: (§1) It has been reported that high-level expression of Bax (Bcl2-associated X protein) elicits apoptosis in a variety of human cancer cells (17). In malignant hematopoietic cells, including k562, Bax overexpression leads to apoptosis of the transfected cells through cytochrome C release (18). To evaluate the tightness of gene expression regulated by the chimeric transactivator, the apoptotic Bax gene was cloned into the transgene-expression cassette from the two-plasmid induction system previously described. […] Stable clones harboring the both plasmids were isolated and characterized following induction.
# [3] = system: S92G-mutated chimeric λR-GyrB transactivator; test: Coumermycin-dependent luciferase activity in stable 293A clones (pCUR, S92G transactivator); format: cell-based, Human
# Experimental: FIG. 4B. […] Results represent two independent experiments performed in triplicate.
# Alternatively, the cells were transfected with PvuI linearized pCUR. Two days following transfection, the cells were replaced into 100 mm dishes, and selected with appropriate antibiotics for 2 weeks. Single clone was selected for further assay. […] After 40 hrs induction, cells were lysed in 100 μl lysis buffer (Promega) for 20 min. Luc activity was determined using 20 μl of total cell lysate using the Dual-Luciferase Reporter Assay System (Promega). The reporter firefly luciferase activities were measured and normalized by the transfection efficiencies estimated by the activities of Renilla luciferase constitutively expressed from cotransfected pRL-TK. For inducible expression of the Bax gene, wild-type K562 cells were transfected using electroporation with 5 μg DNA of the linearized pBax and pGyrB. Cell lines were selected with hygromycin and positive clones were screened in the induced and non-induced states using anti-Bax antibody visualized by Western blot.
# Cells were stably transfected with pCUR containing the Luc gene. […] Values are means of three independent luciferase determinations from three independently cell cultures.
# The kinetic characteristics of this inducible system were further examined in stable cell lines.
# K562-Bax cells = test: Flow cytometric analysis of apoptosis (Annexin-V) in K562-Bax cells; format: cell-based, Human; details: 5 nM coumermycin, 36 hr; 6.7% without treatment
# Text: as §1
# [4] = biological target: T1, chimeric transactivator λR-GyrB-NFκB (UniProt P03034+P0AES6); test: Coumermycin-induced reporter (Luc/GFP) expression, transient transfection of 293A cells with wild type transactivator; format: cell-based, Human; details: 5 nM, 40 hr
# T1 construct: the GyrB domain (codons 2-220 of bacterial DNA gyrase); expressed in transfected cells; host or cells: human embryonic kidney 293A cells, transient transfection with pGyrB plus reporter plasmid, or with pCUR
# Experimental: FIG. 2A. Either two plasmids pGFP and pGyrB (double plasmids, each 0.5 μg), or one plasmid pCUR (1.0 μg) containing the GFP gene (single plasmid), were transiently transfected into 293A cells.
# FIG. 2B. Either two plasmids pLuc and pGyrB (DP, each 0.2 μg), or one plasmid pCUR (0.4 μg) containing the Luc gene (SP), were transiently transfected into 293A cells, respectively. […] The results shown are the means for triplicate determinations and representative of 3 experiments. The transfection efficiencies were normalized by co-transfection of pRL-TK vector constitutively producing Renilla luciferase.
# Exponentially growing 293A cells were seeded at 8×10^5 in 60 mm dishes the day prior to transfection and co-transfected with 5 μg of XmnI linearized pLuc and 0.2 μg of pcDNA3.1 hygromycin using the SuperFect kit (Qiagen). Alternatively, the cells were transfected with PvuI linearized pCUR. Two days following transfection, the cells were replaced into 100 mm dishes, and selected with appropriate antibiotics for 2 weeks. Single clone was selected for further assay. […] Luc activity was determined using 20 μl of total cell lysate using the Dual-Luciferase Reporter Assay System (Promega). The reporter firefly luciferase activities were measured and normalized by the transfection efficiencies estimated by the activities of Renilla luciferase constitutively expressed from cotransfected pRL-TK. […]
compound,measurement,setting,value
CO[C@@H]1[C@@H](OC(N)=O)[C@@H](O)[C@H](Oc2ccc3c(O)c(NC(=O)c4ccc(O)c(CC=C(C)C)c4)c(=O)oc3c2C)OC1(C)C [novobiocin],cellular toxicity,293A cells,do not exert any detectable cellular toxicity
same,in vivo half-life,[1],6 h
same,serum half-life,"[1]; serum, in vivo",6 h
same,extent of switch-off of coumermycin-induced luciferase expression,[2]; 2.5 μM novobiocin added after 11 hr induction with 5 nM coumermycin,nearly completely switched off
same,suppression of coumermycin-induced luciferase expression,"[2]; 5 μM novobiocin with 5 nM coumermycin, 40 hr",over 98%
coumermycin,Bax expression (Western blot),K562-Bax 65 cells,greatly induced
same,cytochrome c release from mitochondria (Western blot),K562-Bax 65 cells,released in substantial amounts
same,induction time at which appreciable luciferase activity was detected,"[3]; 5 nM coumermycin, clone S92G-5",5 h
same,induction time for maximal inducibility,"[3]; 5 nM coumermycin, clone S92G-5",24 h
same,higher doses causing reduced induction of gene expression,[3]; FIG. 4A,> 0.5 µM
same,concentration at which inducibility was decreased,"[3]; clone S92G-5, 40 hr",50 nM
same,concentration for maximal induction,"[3]; clone S92G-5, 40 hr",2.5 to 5 nM
same,lowest concentration giving apparent induction of luciferase expression,"[3]; clone S92G-5, 40 hr",approximately 0.5 ng/ml
same,lowest concentration giving appreciable/apparent induction of gene expression,"[3]; clone S92G-5, 40 hr, luciferase",0.5 nM
same,Luciferase Activity With Coum,"[3]; stable clone 5, coumermycin 5 nM","47,460 ± 447 Arbitrary Light Units/μg protein"
same,Activation factor,"[3]; stable clone 5, with vs without coumermycin 5 nM",5.1 × 10^3
same,Luciferase Activity With Coum,"[3]; stable clone 8, coumermycin 5 nM","52,408 ± 2,254 Arbitrary Light Units/μg protein"
same,Activation factor,"[3]; stable clone 8, with vs without coumermycin 5 nM",1.5 × 10^3
same,Luciferase Activity With Coum,"[3]; stable clone 10, coumermycin 5 nM","1,591 ± 100 Arbitrary Light Units/μg protein"
same,Activation factor,"[3]; stable clone 10, with vs without coumermycin 5 nM",3.2 × 10^3
same,Luciferase Activity With Coum,"[3]; stable clone 18, coumermycin 5 nM","7,446 ± 36 Arbitrary Light Units/μg protein"
same,Activation factor,"[3]; stable clone 18, with vs without coumermycin 5 nM",5.8 × 10^3
same,Luciferase Activity With Coum,"[3]; stable clone 23, coumermycin 5 nM","8,237 ± 204 Arbitrary Light Units/μg protein"
same,Activation factor,"[3]; stable clone 23, with vs without coumermycin 5 nM","over 10,000"
same,Activation factor,"[3]; stable clone 23, with vs without coumermycin 5 nM, listed as Coumermycin",1.4 × 10^4
same,Luciferase Activity With Coum,"[3]; stable clone 28, coumermycin 5 nM","12,292 ± 550 Arbitrary Light Units/μg protein"
same,Activation factor,"[3]; stable clone 28, with vs without coumermycin 5 nM",5.1 × 10^3
same,Luciferase Activity With Coum,"[3]; stable clone 34, coumermycin 5 nM","46,980 ± 1,300 Arbitrary Light Units/μg protein"
same,Activation factor,"[3]; stable clone 34, with vs without coumermycin 5 nM",5.8 × 10^3
same,Luciferase Activity With Coum,"[3]; stable clone 44, coumermycin 5 nM","30,151 ± 2020 Arbitrary Light Units/μg protein"
same,Activation factor,"[3]; stable clone 44, with vs without coumermycin 5 nM","over 10,000"
same,Activation factor,"[3]; stable clone 44, with vs without coumermycin 5 nM, listed as Coumermycin",1.3 × 10^4
same,Luciferase Activity With Coum,"[3]; stable clone 45, coumermycin 5 nM","1,909 ± 24 Arbitrary Light Units/μg protein"
same,Activation factor,"[3]; stable clone 45, with vs without coumermycin 5 nM",1.6 × 10^3
same,Luciferase Activity With Coum,"[3]; stable clone 47, coumermycin 5 nM","8,528 ± 43 Arbitrary Light Units/μg protein"
same,Activation factor,"[3]; stable clone 47, with vs without coumermycin 5 nM",2.1 × 10^3
same,fraction of apoptotic cells,K562-Bax cells,45.5%
same,GFP expression,[4]; both plasmid systems,greatly induced
same,induction of luciferase activity,"[4]; wild type λR, double- and single-plasmid cassettes",around 50 fold
